Results taken from ChEMBL document CHEMBL1201862, “PubChem BioAssay data set” (2004).
Active and inactive are the calls of the source.

What was measured:
[1] = IC50 of Artemis nuclease activity blockers – biochemical, fluorescence intensity, dose response (AID 720701); assay type: functional;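 also: Artemis endonuclease enzyme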
[2] = biological target: Serine/threonine-protein phosphatase (Homo sapiens, UniProt Q9BPW0); assay: inhibition of protein phosphatase 5 activity – biochemical, fluorescence, dose response (AID 2395)
Serine/threonine-protein phosphatase, sequence (Q9BPW0 whole entry): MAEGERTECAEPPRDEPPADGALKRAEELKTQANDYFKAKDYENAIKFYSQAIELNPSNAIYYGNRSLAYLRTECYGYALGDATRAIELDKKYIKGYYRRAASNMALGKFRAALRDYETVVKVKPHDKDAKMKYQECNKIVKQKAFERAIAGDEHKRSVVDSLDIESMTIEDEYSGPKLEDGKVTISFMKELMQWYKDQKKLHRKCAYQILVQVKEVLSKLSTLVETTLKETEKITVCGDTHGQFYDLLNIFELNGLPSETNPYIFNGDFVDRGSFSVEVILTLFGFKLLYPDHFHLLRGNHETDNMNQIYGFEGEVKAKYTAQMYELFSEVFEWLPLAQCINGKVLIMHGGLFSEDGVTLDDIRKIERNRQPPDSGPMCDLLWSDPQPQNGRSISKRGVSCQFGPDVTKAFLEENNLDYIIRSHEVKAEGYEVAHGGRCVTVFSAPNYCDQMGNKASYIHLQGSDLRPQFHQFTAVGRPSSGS

[3] = biological target: Serine/threonine-protein phosphatase PP1-alpha catalytic subunit (Homo sapiens, UniProt P62136); assay: inhibition of protein phosphatase 1 activity – biochemical, fluorescence, dose response (AID 2394)
Serine/threonine-protein phosphatase PP1-alpha catalytic subunit, sequence (P62136 whole entry): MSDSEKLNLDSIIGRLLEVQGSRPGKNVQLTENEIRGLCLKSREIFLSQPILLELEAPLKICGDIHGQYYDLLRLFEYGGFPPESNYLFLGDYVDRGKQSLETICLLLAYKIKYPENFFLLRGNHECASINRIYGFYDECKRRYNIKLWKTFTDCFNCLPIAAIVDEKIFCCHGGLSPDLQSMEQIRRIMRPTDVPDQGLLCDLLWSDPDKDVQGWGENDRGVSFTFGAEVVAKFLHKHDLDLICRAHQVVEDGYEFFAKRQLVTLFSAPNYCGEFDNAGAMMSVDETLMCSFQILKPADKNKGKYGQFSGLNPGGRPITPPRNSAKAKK

[4] = biological target: T1, Neuropeptide Y receptor type 2 (Homo sapiens, UniProt P49146); assay: IC50 for human NPY-Y2 blockade – cell-based, counter-screen for NPY-Y1 antagonist project, dose response (AID 1278); assay type: functional
T1 sequence (P49146 whole entry): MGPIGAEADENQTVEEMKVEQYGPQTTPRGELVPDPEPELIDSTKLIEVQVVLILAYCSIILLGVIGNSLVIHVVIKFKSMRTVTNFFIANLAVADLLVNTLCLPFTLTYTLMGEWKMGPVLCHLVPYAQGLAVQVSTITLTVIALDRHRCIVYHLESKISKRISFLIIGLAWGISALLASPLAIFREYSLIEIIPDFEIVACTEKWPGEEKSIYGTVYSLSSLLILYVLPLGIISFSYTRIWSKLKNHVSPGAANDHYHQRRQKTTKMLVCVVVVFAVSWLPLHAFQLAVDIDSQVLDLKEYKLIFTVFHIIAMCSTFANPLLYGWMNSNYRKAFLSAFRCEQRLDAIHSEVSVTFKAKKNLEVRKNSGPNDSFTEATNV

[5] = biological target: T2, Rac GTPase-activating protein 1 (Homo sapiens, UniProt Q9H0H5); assay: blockers of MgcRacGAP-driven Rac1 GTP hydrolysis – biochemical, ADP Hunter fluorescence, primary and confirmatory, confirmation (AID 624330); assay type: functional
T2 sequence (Q9H0H5 whole entry): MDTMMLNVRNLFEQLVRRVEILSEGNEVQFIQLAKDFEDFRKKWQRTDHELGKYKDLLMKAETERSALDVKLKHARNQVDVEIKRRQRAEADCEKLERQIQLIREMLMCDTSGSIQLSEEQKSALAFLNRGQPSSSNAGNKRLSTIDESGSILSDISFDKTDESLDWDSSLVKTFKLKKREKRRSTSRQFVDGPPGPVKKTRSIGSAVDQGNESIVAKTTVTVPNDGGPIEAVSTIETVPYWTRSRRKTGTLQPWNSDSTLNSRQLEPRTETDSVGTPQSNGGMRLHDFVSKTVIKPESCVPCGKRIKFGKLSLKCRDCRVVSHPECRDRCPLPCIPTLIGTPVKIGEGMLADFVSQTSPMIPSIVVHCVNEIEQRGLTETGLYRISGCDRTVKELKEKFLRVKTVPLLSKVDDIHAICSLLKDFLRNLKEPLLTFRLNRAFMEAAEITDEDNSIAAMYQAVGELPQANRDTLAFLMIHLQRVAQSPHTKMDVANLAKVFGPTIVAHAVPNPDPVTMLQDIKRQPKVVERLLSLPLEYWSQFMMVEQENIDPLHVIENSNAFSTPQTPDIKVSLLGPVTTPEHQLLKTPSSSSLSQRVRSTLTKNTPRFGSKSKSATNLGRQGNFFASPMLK

NADPH oxidase 1 [6] = biological target: T3, NADPH oxidase 1 (Homo sapiens, UniProt Q9Y5S8); assay: Late-stage luminescence-based cell-based dose response assay to identify inhibitors of NADPH oxidase 1 (NOX1): Purchased analogs 2.; assay type: functional
T3 sequence (Q9Y5S8 whole entry): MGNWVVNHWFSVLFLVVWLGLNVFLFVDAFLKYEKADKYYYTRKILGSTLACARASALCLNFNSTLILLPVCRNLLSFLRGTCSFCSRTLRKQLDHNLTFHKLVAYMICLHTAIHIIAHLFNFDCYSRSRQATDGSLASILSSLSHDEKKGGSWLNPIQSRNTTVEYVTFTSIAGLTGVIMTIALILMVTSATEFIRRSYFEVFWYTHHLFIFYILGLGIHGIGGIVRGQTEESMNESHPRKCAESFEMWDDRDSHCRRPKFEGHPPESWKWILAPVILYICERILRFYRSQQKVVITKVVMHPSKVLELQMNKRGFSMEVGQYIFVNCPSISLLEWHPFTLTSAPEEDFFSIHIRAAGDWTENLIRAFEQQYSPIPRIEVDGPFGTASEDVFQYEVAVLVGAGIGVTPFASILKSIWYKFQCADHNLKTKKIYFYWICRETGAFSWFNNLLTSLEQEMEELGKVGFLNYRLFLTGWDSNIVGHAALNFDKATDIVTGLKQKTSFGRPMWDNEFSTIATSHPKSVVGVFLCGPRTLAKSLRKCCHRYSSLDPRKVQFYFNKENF

[7] = biological target: Voltage-gated inwardly rectifying potassium channel KCNH2 (Homo sapiens, UniProt Q12809); assay: concentration-dependent hERG rescue from blockers – cell-based, thallium flux, dose response (AID 2121); assay type: ADME
[8] = Luminescence Cell-Based Dose-Confimation HTS to Identify Inhibitors of 5'UTR Stem-Loop Driven Alpha-Synuclein mRNA Translation in H4 Neuroglioblastoma Cells. [Related pubchem assays: 1827 (Project Summary), 1813 (Primary HTS)]; assay type: functional
[9] = biological target: Solute carrier family 12 member 2/member 5 (Homo sapiens, UniProt P55011+Q9H2X9); assay: KCC2 and NKCC1 inhibition by rubidium flux, cell-based, NKCC1 counter-screen (AID 1734); assay type: functional, HEK293
[10] = biological target: 5-hydroxytryptamine receptor 1A (Homo sapiens, UniProt P08908); assay type: functional
5-hydroxytryptamine receptor 1A, sequence (P08908 whole entry): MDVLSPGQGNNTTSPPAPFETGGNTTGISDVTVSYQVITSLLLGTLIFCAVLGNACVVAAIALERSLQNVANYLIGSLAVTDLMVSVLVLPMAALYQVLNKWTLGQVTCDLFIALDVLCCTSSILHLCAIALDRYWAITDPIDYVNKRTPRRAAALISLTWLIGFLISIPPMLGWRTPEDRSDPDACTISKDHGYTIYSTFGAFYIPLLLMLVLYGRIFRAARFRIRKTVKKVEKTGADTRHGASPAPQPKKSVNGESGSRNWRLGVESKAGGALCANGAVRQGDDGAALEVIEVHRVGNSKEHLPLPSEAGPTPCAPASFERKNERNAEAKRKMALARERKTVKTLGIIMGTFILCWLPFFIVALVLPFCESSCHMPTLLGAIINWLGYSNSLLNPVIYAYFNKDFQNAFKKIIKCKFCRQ

[11] = biological target: Potassium voltage-gated channel subfamily KQT member 2 (Rattus norvegicus, UniProt O88943, W236L); assay: potentiation of rat KCNQ2 current – cell-based, automated electrophysiology, mechanism study for KCNQ2 potentiator project, dose response (AID 2603); assay type: functional
Potassium voltage-gated channel subfamily KQT member 2, sequence (O88943 whole entry W236L): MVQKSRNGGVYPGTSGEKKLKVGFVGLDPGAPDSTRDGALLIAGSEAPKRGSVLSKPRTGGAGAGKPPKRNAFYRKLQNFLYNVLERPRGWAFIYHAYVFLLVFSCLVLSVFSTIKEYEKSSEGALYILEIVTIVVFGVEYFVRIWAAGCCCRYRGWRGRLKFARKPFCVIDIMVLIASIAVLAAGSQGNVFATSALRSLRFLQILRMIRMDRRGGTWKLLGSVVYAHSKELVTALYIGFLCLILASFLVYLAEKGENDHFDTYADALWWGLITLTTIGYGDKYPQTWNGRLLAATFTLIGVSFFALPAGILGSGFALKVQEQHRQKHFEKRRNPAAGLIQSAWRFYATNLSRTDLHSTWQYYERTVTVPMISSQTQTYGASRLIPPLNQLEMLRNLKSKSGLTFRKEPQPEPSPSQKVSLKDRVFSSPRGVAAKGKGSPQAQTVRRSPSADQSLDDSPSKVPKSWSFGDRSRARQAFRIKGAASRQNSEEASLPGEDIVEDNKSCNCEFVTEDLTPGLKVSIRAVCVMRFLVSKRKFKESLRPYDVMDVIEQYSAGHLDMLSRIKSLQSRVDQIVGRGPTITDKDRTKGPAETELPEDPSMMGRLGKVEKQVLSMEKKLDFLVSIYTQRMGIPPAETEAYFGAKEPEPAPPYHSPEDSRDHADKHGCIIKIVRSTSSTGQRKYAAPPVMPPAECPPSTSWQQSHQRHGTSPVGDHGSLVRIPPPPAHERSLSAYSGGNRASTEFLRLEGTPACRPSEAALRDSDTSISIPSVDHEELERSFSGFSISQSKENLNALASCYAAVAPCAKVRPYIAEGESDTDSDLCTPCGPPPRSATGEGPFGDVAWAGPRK

Protein RecA = biological target: T4, Protein RecA (Mycobacterium tuberculosis, UniProt P9WHJ3); assay: Fluorescence Cell-Free Homogeneous Dose Retest to Identify Inhibitors of RecA-Intein Splicing Activity. [Related pubchem assays (depositor defined):AID2097, AID2223, AID489010, AID492950]; assay type: functional
T4 sequence (P9WHJ3 whole entry): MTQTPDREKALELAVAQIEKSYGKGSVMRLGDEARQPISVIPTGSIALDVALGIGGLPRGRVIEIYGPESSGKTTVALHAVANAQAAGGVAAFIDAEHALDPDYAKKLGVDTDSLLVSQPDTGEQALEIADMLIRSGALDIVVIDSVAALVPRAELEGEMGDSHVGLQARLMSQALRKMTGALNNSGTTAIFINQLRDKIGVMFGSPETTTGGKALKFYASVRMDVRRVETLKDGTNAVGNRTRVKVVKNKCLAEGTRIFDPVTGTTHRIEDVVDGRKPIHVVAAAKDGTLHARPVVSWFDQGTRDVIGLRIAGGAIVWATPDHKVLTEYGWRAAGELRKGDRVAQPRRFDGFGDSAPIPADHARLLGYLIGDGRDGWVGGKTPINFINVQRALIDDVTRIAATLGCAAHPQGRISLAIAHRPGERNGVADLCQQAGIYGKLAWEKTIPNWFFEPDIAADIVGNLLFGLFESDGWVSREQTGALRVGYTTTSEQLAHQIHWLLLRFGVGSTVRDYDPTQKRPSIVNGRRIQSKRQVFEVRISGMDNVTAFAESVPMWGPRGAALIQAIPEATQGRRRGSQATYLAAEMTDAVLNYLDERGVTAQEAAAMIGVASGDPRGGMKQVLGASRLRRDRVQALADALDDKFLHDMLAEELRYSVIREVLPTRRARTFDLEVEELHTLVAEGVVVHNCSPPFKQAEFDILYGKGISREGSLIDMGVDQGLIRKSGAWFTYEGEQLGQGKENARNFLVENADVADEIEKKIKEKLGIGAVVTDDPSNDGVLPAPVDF

Genome polyprotein = Genome polyprotein (dengue virus type 2, UniProt P29990); assay: flavivirus cap methylation enzyme inhibition – biochemical, confirmation dose response, primary screen (AID 588689); assay type: functional
[12] = non-specific 3'UTR reporter inhibition in Clone20-Shn3RL – cell-based, Renilla luciferase, cherry-picked, counter-screen for Shn3 inhibitor project, dose response (AID 624133); assay type: functional
Vero = assay: viability of Vero cells under compound – cytotoxicity control for flavivirus capping enzyme inhibitors (AID 588742); assay type: functional; conditions: Chlorocebus sabaeus
[13] = loss of viability in HepG2 cells – cell-based, CellTiter-Glo, cherry-picked, cytotoxicity control for Shn3 inhibitor project, dose response (AID 624134); assay type: functional
[14] = biological target: T5, Hepatocyte nuclear factor 4-alpha (Homo sapiens, UniProt P41235); assay type: functional, cell-based;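 also: biochemical luminescence-based dose-response counterscreen measuring inhibition of HNF4 dimerization, run alongside a screen for blockers of ABHD5–perilipin-5 interaction; split luciferase complementation of HNF4 fusion proteins in cell lysate measuring dimerization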
T5 sequence (P41235 whole entry): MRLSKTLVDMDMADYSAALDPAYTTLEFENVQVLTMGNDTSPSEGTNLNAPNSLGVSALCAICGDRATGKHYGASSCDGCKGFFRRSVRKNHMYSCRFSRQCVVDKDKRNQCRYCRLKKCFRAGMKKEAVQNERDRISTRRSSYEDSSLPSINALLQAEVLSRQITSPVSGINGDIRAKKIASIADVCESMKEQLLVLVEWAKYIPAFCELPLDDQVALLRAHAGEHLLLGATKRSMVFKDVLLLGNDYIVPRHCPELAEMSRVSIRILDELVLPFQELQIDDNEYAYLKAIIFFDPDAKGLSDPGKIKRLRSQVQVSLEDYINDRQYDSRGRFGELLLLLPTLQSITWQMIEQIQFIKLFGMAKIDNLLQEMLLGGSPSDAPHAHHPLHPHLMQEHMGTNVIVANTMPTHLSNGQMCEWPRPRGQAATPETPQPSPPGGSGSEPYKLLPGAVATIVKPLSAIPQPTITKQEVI

[15] = biological target: T6, Replicative DNA helicase DnaB (Mycobacterium tuberculosis, UniProt P9WMR3); assay: DnaB intein splicing inhibitors, dose response, biochemical, cell-free fluorescence (AID 449749); assay type: functional
T6 sequence (P9WMR3 whole entry): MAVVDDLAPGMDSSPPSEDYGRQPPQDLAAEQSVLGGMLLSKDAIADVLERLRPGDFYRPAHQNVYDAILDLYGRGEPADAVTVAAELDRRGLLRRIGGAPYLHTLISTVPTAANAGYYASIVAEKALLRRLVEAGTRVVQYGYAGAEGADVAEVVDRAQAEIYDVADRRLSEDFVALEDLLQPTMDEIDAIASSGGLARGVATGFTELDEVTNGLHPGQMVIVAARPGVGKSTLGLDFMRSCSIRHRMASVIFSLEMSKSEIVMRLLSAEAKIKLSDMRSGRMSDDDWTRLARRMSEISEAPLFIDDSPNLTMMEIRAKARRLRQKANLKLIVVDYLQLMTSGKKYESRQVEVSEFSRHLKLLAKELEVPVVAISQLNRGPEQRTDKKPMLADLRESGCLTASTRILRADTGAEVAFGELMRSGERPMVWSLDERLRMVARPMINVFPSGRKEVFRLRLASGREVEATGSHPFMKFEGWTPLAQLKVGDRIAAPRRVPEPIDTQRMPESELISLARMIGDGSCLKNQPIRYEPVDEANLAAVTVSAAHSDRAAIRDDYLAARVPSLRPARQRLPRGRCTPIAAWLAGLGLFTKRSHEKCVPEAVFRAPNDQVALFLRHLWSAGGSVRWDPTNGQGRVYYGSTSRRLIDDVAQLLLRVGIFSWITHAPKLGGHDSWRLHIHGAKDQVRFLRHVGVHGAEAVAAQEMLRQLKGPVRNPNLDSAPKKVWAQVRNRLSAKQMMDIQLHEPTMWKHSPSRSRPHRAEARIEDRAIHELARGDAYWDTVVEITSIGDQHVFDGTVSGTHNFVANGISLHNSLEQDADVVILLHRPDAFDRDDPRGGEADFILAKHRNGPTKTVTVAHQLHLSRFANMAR

[16] = reduction of Shn3 3'UTR-driven luciferase in osteoblasts – cell-based, Clone20 osteoblasts, firefly luciferase, cherry-picked, dose response (AID 624132); assay type: functional;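 also: firefly luciferase luminescence from reporter carrying the Shn3 3'UTR in osteoblasts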
NADPH oxidase 1 [17] = biological target: T3, NADPH oxidase 1; assay type: functional, cell-based
[18] = biological target: Sphingosine 1-phosphate receptor 1 (Homo sapiens, UniProt P21453); assay: Dose Response Cell-Based Assay for Agonists of the Sphingosine 1-Phosphate Receptor 1 (S1P1): Purchased Analogues. [Related pubchem assays: 1192, 373, 439 ]; assay type: functional
[19] = biological target: Sphingosine 1-phosphate receptor 3 (Homo sapiens, UniProt Q99500); assay: Dose Response Cell-Based Assay for Agonists of the Sphingosine 1-Phosphate Receptor 3 (S1P3): Purchased Analogues. [Related pubchem assays: 373, 439 ]; assay type: functional
[20] = biological target: Sphingosine 1-phosphate receptor 2 (Homo sapiens, UniProt O95136); assay: Dose Response Cell-Based Assay for Agonists of the Sphingosine 1-Phosphate Receptor 2 (S1P2): Purchased Analogues. [Related pubchem assays: 1192, 373, 439 ]; assay type: functional
Sphingosine 1-phosphate receptor 2, sequence (O95136 whole entry): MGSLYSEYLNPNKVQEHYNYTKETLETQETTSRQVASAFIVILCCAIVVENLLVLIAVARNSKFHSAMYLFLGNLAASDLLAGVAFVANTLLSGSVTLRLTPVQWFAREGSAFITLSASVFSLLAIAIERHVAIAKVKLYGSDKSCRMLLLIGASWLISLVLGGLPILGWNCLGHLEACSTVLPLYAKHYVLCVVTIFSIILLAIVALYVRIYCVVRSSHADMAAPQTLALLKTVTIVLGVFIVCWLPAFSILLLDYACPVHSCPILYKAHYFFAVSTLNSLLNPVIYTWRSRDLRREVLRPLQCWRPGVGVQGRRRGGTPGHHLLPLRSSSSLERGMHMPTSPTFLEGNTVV

[21] = biological target: Aryl hydrocarbon receptor (Homo sapiens, UniProt P35869); assay: Luminescence-based cell-based high throughput dose response assay for activators of the Aryl Hydrocarbon Receptor (AHR). [Related pubchem assays: 2796 (Primary screen (AHR activators in singlicate)), 2845 (Confirmation screen (AHR activators in triplicate)), 434939 (Counterscreen (PXR activators in triplicate)), 2804 (Summary (AHR activators))]; assay type: ADME
Aryl hydrocarbon receptor, sequence (P35869 whole entry): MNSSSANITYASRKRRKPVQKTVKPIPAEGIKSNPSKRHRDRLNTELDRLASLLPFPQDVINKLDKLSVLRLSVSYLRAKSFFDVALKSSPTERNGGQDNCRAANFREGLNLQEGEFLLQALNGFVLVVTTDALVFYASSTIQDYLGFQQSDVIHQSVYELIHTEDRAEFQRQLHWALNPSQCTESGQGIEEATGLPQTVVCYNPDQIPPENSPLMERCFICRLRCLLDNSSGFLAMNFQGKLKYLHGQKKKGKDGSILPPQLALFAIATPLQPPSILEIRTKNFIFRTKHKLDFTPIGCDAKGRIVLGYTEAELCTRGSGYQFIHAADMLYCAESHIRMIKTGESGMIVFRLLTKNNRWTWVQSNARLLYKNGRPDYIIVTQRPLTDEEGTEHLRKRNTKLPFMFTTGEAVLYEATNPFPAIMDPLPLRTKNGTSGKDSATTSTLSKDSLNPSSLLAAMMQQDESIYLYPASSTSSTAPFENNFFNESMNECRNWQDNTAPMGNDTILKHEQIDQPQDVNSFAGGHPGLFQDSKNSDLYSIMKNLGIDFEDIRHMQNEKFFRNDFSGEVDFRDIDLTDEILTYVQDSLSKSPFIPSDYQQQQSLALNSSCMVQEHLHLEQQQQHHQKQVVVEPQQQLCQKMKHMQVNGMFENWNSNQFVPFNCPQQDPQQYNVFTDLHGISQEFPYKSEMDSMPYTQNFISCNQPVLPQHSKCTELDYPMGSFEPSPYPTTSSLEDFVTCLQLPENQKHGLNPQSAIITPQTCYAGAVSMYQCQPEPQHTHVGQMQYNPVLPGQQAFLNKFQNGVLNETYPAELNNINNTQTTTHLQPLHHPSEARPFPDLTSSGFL

Cytochrome P450 2D6 = Cytochrome P450 2D6 (Homo sapiens, UniProt P10635);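 also: CYP2D6 member of a cytochrome P450 panel assay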
Cytochrome P450 2D6, sequence (P10635 whole entry): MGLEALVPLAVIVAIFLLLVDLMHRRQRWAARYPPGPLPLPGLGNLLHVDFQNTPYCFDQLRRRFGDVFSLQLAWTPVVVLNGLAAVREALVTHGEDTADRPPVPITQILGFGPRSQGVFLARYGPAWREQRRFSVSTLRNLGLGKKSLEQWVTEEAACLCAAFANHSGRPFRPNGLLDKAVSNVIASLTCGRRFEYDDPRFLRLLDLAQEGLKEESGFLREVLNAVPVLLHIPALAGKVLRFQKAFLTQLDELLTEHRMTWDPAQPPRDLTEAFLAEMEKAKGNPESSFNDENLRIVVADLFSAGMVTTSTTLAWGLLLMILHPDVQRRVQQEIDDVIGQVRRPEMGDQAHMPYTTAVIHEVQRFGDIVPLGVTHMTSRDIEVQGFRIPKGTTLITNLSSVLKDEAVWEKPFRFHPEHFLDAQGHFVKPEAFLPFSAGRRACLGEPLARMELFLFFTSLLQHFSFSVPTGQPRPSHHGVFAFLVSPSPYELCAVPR

Cytochrome P450 3A4 = Cytochrome P450 3A4 (Homo sapiens, UniProt P08684);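 also: CYP3A4 tested as one member of a cytochrome P450 panel screen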
Cytochrome P450 3A4, sequence (P08684 whole entry): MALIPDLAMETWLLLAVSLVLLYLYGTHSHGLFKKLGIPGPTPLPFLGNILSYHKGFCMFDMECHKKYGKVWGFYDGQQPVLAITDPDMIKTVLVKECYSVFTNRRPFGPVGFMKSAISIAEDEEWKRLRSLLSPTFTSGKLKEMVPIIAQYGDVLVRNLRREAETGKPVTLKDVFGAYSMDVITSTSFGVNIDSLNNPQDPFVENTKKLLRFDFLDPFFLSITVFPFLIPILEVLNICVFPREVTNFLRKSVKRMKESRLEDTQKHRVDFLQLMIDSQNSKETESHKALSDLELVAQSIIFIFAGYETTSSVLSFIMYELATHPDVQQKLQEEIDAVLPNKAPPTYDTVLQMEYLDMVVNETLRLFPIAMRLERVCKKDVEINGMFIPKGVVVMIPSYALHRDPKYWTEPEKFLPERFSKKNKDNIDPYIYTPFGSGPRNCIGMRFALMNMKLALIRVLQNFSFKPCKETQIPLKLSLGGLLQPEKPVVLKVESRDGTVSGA

Structure (SMILES): CCCN(CC1CC1)c1nc(N)c2c(N)nc(OC)cc2c1C#N
- IC50 [1]: > 20 µM (inactive)
- IC50 [2]: 9.67 µM (active)
- IC50 [3]: > 67 µM (not active)

Structure (SMILES): COc1cccc(Oc2c[nH]nc2-c2ccc(O)cc2O)c1
- IC50 [4]: > 35 µM (not active)
- IC50 [5]: 39.4 µM (active)

Structure (SMILES): CC(=O)Nc1ccc(/C=N/Nc2ccccc2)cc1
- IC50 (NADPH oxidase 1 [6]): 6.22 µM (active)

Structure (SMILES): O=[N+]([O-])c1ccccc1OCCNCc1ccccc1
- IC50 [5]: 153 µM (active)
- EC50 [7]: 4.78 µM (active)

Structure (SMILES): CN(C)c1nc(N)nc(CSc2nnnn2-c2ccc(Cl)cc2)n1
- EC50 [8]: > 100 µM (not active)

Structure (SMILES): Cc1cnc(NC(=O)CSc2nnc(Cc3ccccc3)o2)s1
- IC50 [9]: 19.7 µM (active)

Structure (SMILES): CCOC(=O)c1c(C)nc(-c2ccccc2)nc1NC(=O)CC
- EC50 [10]: > 50 µM (not active)

Structure (SMILES): CSc1nnc(NC(=O)c2nc(S(=O)(=O)Cc3ccc(C)cc3)ncc2Cl)s1
- EC50 [11]: 34.9 µM (active)
- EC50 (Protein RecA): 3.26 µM (active)
- IC50 (Genome polyprotein): 40.5 µM (active)
- AC50 [12]: 11.1 µM (active)
- CC50 (Vero): 30.9 µM (active)
- AC50 [13]: > 70 µM (inactive)
- IC50 [14]: 4.93 µM (active)
- AC50 [15]: 5.31 µM (active)
- AC50 [16]: 3.18 µM (active)

Structure (SMILES): O=C(Oc1cccc([N+](=O)[O-])c1)c1sc2ccccc2c1Cl
- IC50 (NADPH oxidase 1 [17]): > 17 µM (not active)

Structure (SMILES): CCC(C)NC(=O)c1cc(-c2ccc(C)cc2)on1 (configuration not stated)
- EC50 [18]: > 50 µM (not active)
- EC50 [19]: > 50 µM (not active)
- EC50 [20]: > 10 µM (not active)

Structure (SMILES): Cc1cc(C)nc(Nc2ncc(O)n2-c2ccccc2)n1
- EC50 [21]: 9.35 µM (active)
- AC50 (Cytochrome P450 2D6): inconclusive
- AC50 (Cytochrome P450 3A4): inconclusive
